Test results reported in patent US12404285B2, “KRAS G12D proteolysis targeting chimeras” (PAQ Therapeutics Inc., priority 2022, dated 2025).

Assays:
[1] = biological target: T1, KRAS in AGS cells (KRAS G12D mutant cell line) or LS180 cells (KRAS G12D mutant cell line) (Homo sapiens, UniProt P01116, G12D); assay: KRAS Western Blot (WB) assay; format: cell-based; details: KRAS degradation, 24 hours incubation, normalized to β-actin
T1 construct: CRL-187 (LS180) (so in the source); host or cells: AGS or LS180 cells
T1 sequence (P01116 1-188 isoform P01116-2 G12D): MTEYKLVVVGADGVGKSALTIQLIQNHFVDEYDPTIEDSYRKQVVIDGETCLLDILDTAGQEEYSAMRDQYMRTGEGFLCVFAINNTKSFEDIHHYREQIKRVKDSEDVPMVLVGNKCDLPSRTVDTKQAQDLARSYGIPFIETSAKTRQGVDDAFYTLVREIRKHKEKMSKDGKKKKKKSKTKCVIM
Experimental: Day 1. Seeded AGS cells (KRAS G12D mutant cell line, ATCC, CRL-1739) or LS180 cells (KRAS G12D mutant cell line, ATCC, CRL-187) into 6-well plates (cell density: 3×10^5 cells/well/2 ml medium) in Ham's F-12 medium (Invitrogen, 11765-054) or Eagle's Minimum Essential Medium (ATCC, 30-2003) and incubated overnight at 37° C. and 5% CO2.
Day 2. Aspirated 1 ml medium from each well and added 1 ml medium containing DMSO or test compound into the well to achieve the desired final concentration. Mixed well by gentle shaking and incubated for 24 hours.
Day 3. Aspirated media from plates; washed cells with 2 ml 4° C. PBS (Solarbio, P1020-500) and aspirated the PBS. Then added 100 μl 4° C. […] lysis buffer (Boston BioProducts BP-115D) with protease and phosphatase inhibitors at vendor recommended concentrations (Roche 05892791001 and 04906837001) into each well to lyse the cells, and incubated for 20 minutes at 4° C. Cell lysate was collected into 1.5 ml Eppendorf tube, and the lysate was sonicated at 4° C. for 2 minutes (5 second pulse at 30% power with 10 second intermissions). The lysate was centrifuged at 12,000 rpm for 15 minutes at 4° C. The supernatant was transferred to a fresh Eppendorf tube, and protein concentration was quantified using a BCA kit (Solarbio, PC0020-500). Mixed the cell lysate and 5×NuPAGE SDS Loading Buffer (Beyotime, P0015L), and heated at 95° C. for 10 minutes in a heat block. Prepared samples were stored at −80° C. until SDS-PAGE procedure.
Day 4. Loaded 15 μg protein from each sample onto NuPAGE® Novex 4-12% Bis-Tris Midi Gel, 26 W (Invitrogen, WG1403BOX) and ran the gel at 120V for 1.5 hours in 1×NuPAGE® MOPS SDS Running Buffer (Novex, NP0001). Electrotransferred to nitrocellulose membrane using dry transfer method (iBlot 2 Transfer Stacks, nitrocellulose, IB23001) with a program consisting of 20V for 1 minute, 23V for 4 minutes and 25V for 2 minutes. Blocked the membrane with 5% BSA (Solarbio, A8020) in 1×TBST (CST, 9997S) for 1 hour at room temperature. Incubated with KRAS antibody (LSBio, LS-C175665, clone 2C1) at 1:1000 dilution and β-actin antibody at 1:1000 dilution (CST, 4970S) in TBST containing 1% BSA (Solarbio, A8020) at 4° C. overnight.
Day 5. Washed nitrocellulose membrane three times with 1×TBST for 10 minutes each at room temperature. Incubated with fluorescently labeled secondary antibodies at 1:5000 dilution in TBST containing 1% BSA (anti-rabbit IgG, Licor, 926-32211; anti-mouse IgG, LI-COR, 926-68070) for 1 hour at room temperature. Washed membrane three times with TBST, 10 minutes each. Scanned the membrane on LiCOR scanner for fluorescent signal(s) and quantified KRAS bands and β-actin bands for normalization.
The data are reported in Table 2, wherein “A” indicates a DC50 of less than 1 μM; “B” indicates a DC50 of greater than or equal to 1 μM and less than 10 μM; and “C” indicates a DC50 of greater than or equal to 10 μM.

[2] = biological target: T2, KRAS (G12D)-HiBit in AsPc-1-KRAS (G12D)-HiBit-KI cell (Homo sapiens, UniProt P01116, G12D); assay: G12D HiBit assay; format: cell-based; details: 24 hours compound treatment, absolute DC50, read-out: Average PHA DC50
T2 construct: host or cells: AsPc-1-KRAS (G12D)-HiBit-KI cells (knock-in line)
T2 sequence (P01116 1-188 isoform P01116-2 G12D): as above
In short: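 Degradation of endogenous HiBiT-tagged KRAS G12D in AsPc-1 knock-in cells read after 24 h compound exposure (0.015-300 nM, 3-fold steps) by Nano-Glo HiBiT lytic luminescence. Signal normalised to DMSO-only cells; absolute DC50 derived by curve fitting.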

Compound: C#Cc1c(F)ccc2cc(O)cc(-c3ncc4c(N5CC6CCC(C5)N6)nc(OC[C@@]56CCCN5[C@H](COC(=O)NCCCCNc5cccc7c5C(=O)N(C5CCC(=O)NC5=O)C7=O)CC6)nc4c3F)c12 (stereo partly drawn) [Compound 019, [(3S,8S)-8-[[4-(3,8-diazabicyclo[3.2.1]octan-3-yl)-7-(8-ethynyl-7-fluoro-3-hydroxy-1-naphthyl)-8-fluoro-pyrido[4,3-d]pyrimidin-2-yl]oxymethyl]-1,2,3,5,6,7-hexahydropyrrolizin-3-yl]methyl-N-[4-[[2-(2,6-dioxo-3-piperidyl)-1,3-dioxo-isoindolin-4-yl]amino]butyl]carbamate]
- DC50 [1]: C (DC50 greater than or equal to 10 μM)

Compound: C#Cc1c(F)ccc2cc(O)cc(-c3ncc4c(N5CC6CCC(C5)N6)nc(OC[C@@]56CCCN5[C@H](COC(=O)NCCCNc5cccc7c5C(=O)N(C5CCC(=O)NC5=O)C7=O)CC6)nc4c3F)c12 (stereo partly drawn) [Compound 020, [(3S,8S)-8-[[4-(3,8-diazabicyclo[3.2.1]octan-3-yl)-7-(8-ethynyl-7-fluoro-3-hydroxy-1-naphthyl)-8-fluoro-pyrido[4,3-d]pyrimidin-2-yl]oxymethyl]-1,2,3,5,6,7-hexahydropyrrolizin-3-yl]methylN-[3-[[2-(2,6-dioxo-3-piperidyl)-1,3-dioxo-isoindolin-4-yl]amino]propyl]carbamate]
- DC50 [1]: C (DC50 greater than or equal to 10 μM)

Compound: C#Cc1c(F)ccc2cc(O)cc(-c3ncc4c(N5CC6CCC(C5)N6)nc(OC[C@@]56CCCN5[C@H](COC(=O)NCCCCCCNc5cccc7c5C(=O)N(C5CCC(=O)NC5=O)C7=O)CC6)nc4c3F)c12 (stereo partly drawn) [Compound 021, [(3S,8S)-8-[[4-(3,8-diazabicyclo[3.2.1]octan-3-yl)-7-(8-ethynyl-7-fluoro-3-hydroxy-1-naphthyl)-8-fluoro-pyrido[4,3-d]pyrimidin-2-yl]oxymethyl]-1,2,3,5,6,7-hexahydropyrrolizin-3-yl]methylN-[6-[[2-(2,6-dioxo-3-piperidyl)-1,3-dioxo-isoindolin-4-yl]amino]hexyl]carbamate]
- DC50 [1]: B (DC50 greater than or equal to 1 μM and less than 10 μM)

Compound: C#Cc1c(F)ccc2cc(O)cc(-c3ncc4c(N5CC6CCC(C5)N6)nc(OC[C@]56CCCN5[C@@H](COC(=O)NCCCCCCNc5cccc7c5C(=O)N(C5CCC(=O)NC5=O)C7=O)CC6)nc4c3F)c12 (stereo partly drawn) [Compound 022, [(3R,8R)-8-[[4-(3,8-diazabicyclo[3.2.1]octan-3-yl)-7-(8-ethynyl-7-fluoro-3-hydroxy-1-naphthyl)-8-fluoro-pyrido[4,3-d]pyrimidin-2-yl]oxymethyl]-1,2,3,5,6,7-hexahydropyrrolizin-3-yl]methyl N-[6-[[2-(2,6-dioxo-3-piperidyl)-1,3-dioxo-isoindolin-4-yl]amino]hexyl]carbamate]
- DC50 [1]: C (DC50 greater than or equal to 10 μM)

Compound: C#Cc1c(F)ccc2cc(O)cc(-c3ncc4c(N5CC6CCC(C5)N6)nc(OC[C@]56CCCN5[C@@H](COC(=O)NCCOCCOCCNc5cccc7c5C(=O)N(C5CCC(=O)NC5=O)C7=O)CC6)nc4c3F)c12 (some centres unmarked) [Compound 025]
- DC50 [1]: C (DC50 greater than or equal to 10 μM)

Compound: C#Cc1c(F)ccc2cc(O)cc(-c3ncc4c(N5CC6CCC(C5)N6)nc(OC[C@@]56CCCN5[C@H](COC(=O)NCCOCCOCCOCCNc5cccc7c5C(=O)N(C5CCC(=O)NC5=O)C7=O)CC6)nc4c3F)c12 (stereo partly drawn) [Compound 027, [(3R,8R)-8-[[4-(3,8-diazabicyclo[3.2.1]octan-3-yl)-7-(8-ethynyl-7-fluoro-3-hydroxy-1-naphthyl)-8-fluoro-pyrido[4,3-d]pyrimidin-2-yl]oxymethyl]-1,2,3,5,6,7-hexahydropyrrolizin-3-yl]methyl N-[2-[2-[2-[2-[[2-(2,6-dioxo-3-piperidyl)-1,3-dioxo-isoindolin-4-yl]amino]ethoxy]ethoxy]ethoxy]ethyl]carbamate]
- DC50 [1]: C (DC50 greater than or equal to 10 μM)

Compound: C#Cc1c(F)ccc2cc(O)cc(-c3ncc4c(N5CC6CCC(C5)N6)nc(OC[C@@]56CCCN5[C@H](COC(=O)NCCOCCOCCOCCNc5cccc7c5C(=O)N(C5CCC(=O)NC5=O)C7=O)CC6)nc4c3F)c12 (stereo partly drawn) [Compound 028, [(3S,8S)-8-[[4-(3,8-diazabicyclo[3.2.1]octan-3-yl)-7-(8-ethynyl-7-fluoro-3-hydroxy-1-naphthyl)-8-fluoro-pyrido[4,3-d]pyrimidin-2-yl]oxymethyl]-1,2,3,5,6,7-hexahydropyrrolizin-3-yl]methylN-[2-[2-[2-[2-[[2-(2,6-dioxo-3-piperidyl)-1,3-dioxo-isoindolin-4-yl]amino]ethoxy]ethoxy]ethoxy]ethyl]carbamate]
- DC50 [1]: C (DC50 greater than or equal to 10 μM)

Compound: C#Cc1c(F)ccc2cccc(-c3ncc4c(N5CC6CCC(C5)N6)nc(OC[C@@]56CCCN5[C@H](COC(=O)NCCCCCCCCc5ccc7c(c5)n(C)c(=O)n7C5CCC(=O)NC5=O)CC6)nc4c3F)c12 (stereo partly drawn) [Compound 029, [(3S,8S)-8-[[4-(3, example 208-diazabicyclo[3.2.1]octan-3-yl)-7-(8-ethynyl-7-fluoro-1-naphthyl)-8-fluoro-pyrido[4,3-d]pyrimidin-2-yl]oxymethyl]-1,2,3,5,6,7-hexahydropyrrolizin-3-yl]methyl N-[8-[1-(2,6-dioxo-3-piperidyl)-3-methyl-2-oxo-benzimidazol-5-yl]octyl]carbamate]
- DC50 [1]: A (DC50 less than 1 μM)

Compound: C#Cc1c(F)ccc2cccc(-c3ncc4c(N5CC6CCC(C5)N6)nc(OC[C@@]56CCCN5[C@H](COC(=O)N5CCC(OCCCc7cccc8c7n(C)c(=O)n8C7CCC(=O)NC7=O)CC5)CC6)nc4c3F)c12 (stereo partly drawn) [Compound 031, [(3S,8S)-8-[[4-(3,8-diazabicyclo[3.2.1]octan-3-yl)-7-(8-ethynyl-7-fluoro-1-naphthyl)-8-fluoro-pyrido[4,3-d]pyrimidin-2-yl]oxymethyl]-1,2,3,5,6,7-hexahydropyrrolizin-3-yl]methyl 4-[3-[1-(2,6-dioxo-3-piperidyl)-3-methyl-2-oxo-benzimidazol-4-yl]propoxy]piperidine-1-carboxylate]
- DC50 [1]: A (DC50 less than 1 μM)
- DC50 [2]: < 100 nM

Compound: C#Cc1c(F)ccc2cc(O)cc(-c3ncc4c(N5CC6CCC(C5)N6)nc(OC[C@@]56CCCN5[C@H](COC(=O)N5CCC(OCCCc7cccc8c7n(C)c(=O)n8C7CCC(=O)NC7=O)CC5)CC6)nc4c3F)c12 (stereo partly drawn) [Compound 032, [(3S,8S)-8-[[4-(3,8-diazabicyclo[3.2.1]octan-3-yl)-7-(8-ethynyl-7-fluoro-3-hydroxy-1-naphthyl)-8-fluoro-pyrido[4,3-d]pyrimidin-2-yl]oxymethyl]-1,2,3,5,6,7-hexahydropyrrolizin-3-yl]methyl4-[3-[1-(2,6-dioxo-3-piperidyl)-3-methyl-2-oxo-benzimidazol-4-yl]propoxy]piperidine-1-carboxylate]
- DC50 [1]: A (DC50 less than 1 μM)
- DC50 [2]: < 100 nM

Compound: C#Cc1c(F)ccc2cc(O)cc(-c3ncc4c(N5CC6CCC(C5)N6)nc(OC[C@@]56CCCN5[C@H](COC(=O)N5CCC(OCC#Cc7cccc8c7n(C)c(=O)n8C7CCC(=O)NC7=O)CC5)CC6)nc4c3F)c12 (stereo partly drawn) [Compound 033, [(3S,8S)-8-[[4-(3,8-diazabicyclo[3.2.1]octan-3-yl)-7-(8-ethynyl-7-fluoro-3-hydroxy-1-naphthyl)-8-fluoro-pyrido[4,3-d]pyrimidin-2-yl]oxymethyl]-1,2,3,5,6,7-hexahydropyrrolizin-3-yl]methyl 4-[3-[1-(2,6-dioxo-3-piperidyl)-3-methyl-2-oxo-benzimidazol-4-yl]prop-2-ynoxy]piperidine-1-carboxylate]
- DC50 [1]: A (DC50 less than 1 μM)
- DC50 [2]: < 100 nM
